Source: patent US9561259B2, “Cyclosporin analogs” (priority 2010, dated 2017)

Columns and labels:
[1] = test system: Spleen cells from C57BL/6 (responder) and BALB/c (stimulator); assay: Mixed Lymphocyte Reaction (MLR) assay; format: cell-based, mice; conditions: five days, 3H-thymidine incorporation
Description: The MLR assay is another means of estimating the immunosuppressive potential of test compounds. Female C57BL/6 and BALB/c mice, 6-8 weeks of age, were obtained from the Frederick Cancer Research and Development Center of the National Cancer Institute (Frederick, Md.). Spleens were harvested aseptically from all mice and single cell suspensions were prepared by disaggregating the cells with frosted glass slides, allowing the debris to settle, and washing the cells twice with complete medium. Complete medium consisted of RPMI 1640 medium containing 25 mM HEPES buffer (HyClone, Logan, Utah) supplemented with 10% heat-inactivated fetal bovine serum (FBS; Atlanta Biologicals, Lawrenceville, Ga.), 100 μg/mL streptomycin, 100 U/mL penicillin G, 0.25 μg/mL amphotericin B (HyClone), 2 mM L-glutamine dipeptide (HyClone), and 2×10^−5 M 2-mercaptoethanol (Sigma). Cells were washed twice and resuspended in complete medium. Cell counts were performed using a Beckman Coulter Z-1 particle counter (Fullerton, Calif.). Cell viability was determined by propidium iodide (PI) staining using an Accuri C6 flow cytometer (Ann Arbor, Mich.).
Spleen cells from C57BL/6 (H-2^b) and BALB/c (H-2^d) were used as responder (R) and stimulator (S) cells, respectively. Cells were plated in triplicate in 96-well flat microtiter plates (Costar, Cambridge, Mass.) such that each well contained 2×10^5 R and 8×10^5 S cells. Cultures were incubated in the absence or presence of various concentrations of Cs A, test compounds, or medium at 37° C. in humidified 5% CO2 for five days, pulsed with ^3H-thymidine (^3H-TdR) for the final 16 hours of incubation, and harvested using a Brandel 96-well cell harvester (Gaithersburg, Md.). Proliferation was measured by counting the radioactivity on filter mats in a Wallac 1450 Microbeta TriLux scintillation counter (Turku, Finland). […] These control cultures were incubated for 3 days under the same conditions as those described for the MLR; lymphoproliferation was determined in the same manner as described above.

[2] = Epimerization in MeOH at 50° C. (500 MHz NMR)
Description: The proton attached to the sarcosine center (adjacent to the sulfur atom) appears at ˜δ 5.9 in the R-isomer whilst in the S-isomer it moves downfield to ˜δ6.5.

Substance	IC50 [1] [nM]	Epimerization (%) ([2]; time 0 days)	Epimerization (%) ([2]; time 30 days)	Epimerization (%) ([2]; time 35 days)	Epimerization (%) ([2]; time 6 days)
[(R)-(3-(4-methyl-piperazin-1-yl)-propylthio)-Sar]^3 Cyclosporin A [Example 3]	3300	0	2	–	–
[(R)-(3-ethylisopropylamino-propylthio)-Sar]^3 Cyclosporin A [Example 2]	2800	0	–	0	–
[(R)-(3-morpholin-4-yl-propylthio)-Sar]^3 Cyclosporin A [Example 1]	3000	0	0.2	–	0
